From paper PMC7665244 (Developmental cell, 2019)

Target: hCFTR (human CFTR) (Homo sapiens, UniProt P13569)
Test: inside-out oocyte macropatch current
Assay type: biochemical
Settings: 1 mM ATP and PKA 127.6 U/mL; potentiator

Sequence of hCFTR (human CFTR) (P13569 whole entry): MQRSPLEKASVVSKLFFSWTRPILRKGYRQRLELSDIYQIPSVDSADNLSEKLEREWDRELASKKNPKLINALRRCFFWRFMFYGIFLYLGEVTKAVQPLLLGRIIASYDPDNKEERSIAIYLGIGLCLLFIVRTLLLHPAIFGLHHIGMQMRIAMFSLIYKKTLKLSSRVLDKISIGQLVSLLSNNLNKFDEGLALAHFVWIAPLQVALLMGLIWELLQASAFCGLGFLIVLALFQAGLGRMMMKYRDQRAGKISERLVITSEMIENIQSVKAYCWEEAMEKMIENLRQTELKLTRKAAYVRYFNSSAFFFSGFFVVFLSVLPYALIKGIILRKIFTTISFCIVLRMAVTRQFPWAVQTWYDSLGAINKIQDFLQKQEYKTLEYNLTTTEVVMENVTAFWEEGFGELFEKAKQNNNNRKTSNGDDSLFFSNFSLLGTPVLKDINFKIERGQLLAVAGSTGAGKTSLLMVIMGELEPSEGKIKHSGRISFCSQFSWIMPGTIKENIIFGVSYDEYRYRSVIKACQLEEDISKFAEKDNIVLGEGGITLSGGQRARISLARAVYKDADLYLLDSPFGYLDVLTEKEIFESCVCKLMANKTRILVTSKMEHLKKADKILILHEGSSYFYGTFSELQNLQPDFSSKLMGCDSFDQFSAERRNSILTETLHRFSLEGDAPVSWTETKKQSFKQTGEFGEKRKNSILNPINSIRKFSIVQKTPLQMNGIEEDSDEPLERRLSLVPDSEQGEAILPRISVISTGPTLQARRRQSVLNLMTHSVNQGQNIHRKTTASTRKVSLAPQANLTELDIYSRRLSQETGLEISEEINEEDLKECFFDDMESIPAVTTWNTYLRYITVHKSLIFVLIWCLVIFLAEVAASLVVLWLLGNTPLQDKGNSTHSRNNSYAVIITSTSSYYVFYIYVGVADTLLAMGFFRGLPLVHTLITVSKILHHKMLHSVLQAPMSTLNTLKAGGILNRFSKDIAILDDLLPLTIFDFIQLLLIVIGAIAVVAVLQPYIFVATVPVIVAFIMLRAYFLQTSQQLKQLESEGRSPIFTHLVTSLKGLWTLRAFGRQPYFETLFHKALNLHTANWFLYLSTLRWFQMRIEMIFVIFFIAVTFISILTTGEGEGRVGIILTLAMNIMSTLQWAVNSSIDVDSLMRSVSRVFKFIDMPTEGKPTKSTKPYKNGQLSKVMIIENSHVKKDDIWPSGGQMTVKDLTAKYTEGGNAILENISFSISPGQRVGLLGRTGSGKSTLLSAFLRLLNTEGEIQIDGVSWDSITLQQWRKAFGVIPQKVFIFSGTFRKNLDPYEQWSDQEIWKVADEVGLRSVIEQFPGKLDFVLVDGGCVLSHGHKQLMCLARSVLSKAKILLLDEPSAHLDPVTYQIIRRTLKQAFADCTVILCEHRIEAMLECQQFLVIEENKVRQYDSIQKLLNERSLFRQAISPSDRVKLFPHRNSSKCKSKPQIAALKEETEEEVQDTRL

SMILES: CC(C)(C)c1cc(C(C)(C)C)c(NC(=O)c2c[nH]c3ccccc3c2=O)cc1O [VX-770]
- fractional potentiation at 0.2 μM: although hCFTR is potentiated, Lp-CFTR shows no enhancement of function
